Patent US7153650B2, “Marker system for preparing and characterizing high-quality human embryonic stem cells” (Geron Corporation, priority 2003, dated 2006)
Marks after values point to notes of the source that are not given here.

Test system: hES cells
Assay: Quantitative RT-PCR analysis of gene expression in hESC differentiation (culture with RA or DMSO)
Type: cell-based, human
Details: for Fold Change, 130 kDa leucine-rich protein (LRP 130) mRNA / Fold Change, Bone marrow stromal antigen 2 (BST-2) mRNA / Fold Change, Bone morphogenetic protein receptor, type Ia (BMPR1A) (ALK-3) mRNA / Fold Change, EST (GA_28053, T24677) / Fold Change, Early development regulator 1 (polyhomeotic 1 homolog) (EDR1) mRNA / Fold Change, Ephrin type-a receptor 1 (EPHA1) mRNA / Fold Change, FLJ31267 (acetylglucosaminyltransferase-like protein) mRNA / Fold Change, Fibroblast growth factor receptor 3 precursor (FGFR-3) mRNA / Fold Change, Forkhead box h1 (FOXH1) mRNA / Fold Change, Forkhead box o1a (foxo1a) mRNA / Fold Change, Gamma-aminobutyric acid (GABA) A receptor, beta 3 mRNA / Fold Change, Gastrin-releasing peptide receptor (GRP-R) mRNA / Fold Change, Glypican-2 (cerebroglycan) mRNA / Fold Change, Hypothetical protein BC018070 mRNA / Fold Change, Hypothetical protein FLJ14549 mRNA / Fold Change, Kallmann syndrome 1 sequence (KAL1) mRNA / Fold Change, Krab-zinc finger protein SZF1-1 mRNA / Fold Change, Left-right determination, factor b (LEFTB) mRNA / Fold Change, Nell2 (NEL-like protein 2) mRNA / Fold Change, Notch 1 (N1) mRNA / Fold Change, Octamer-binding transcription factor 3a (OCT-3A) (OCT-4) mRNA / Fold Change, Podocalyxin-like (PODXL) mRNA / Fold Change, Potassium channel subfamily k member 5 (TASK-2) mRNA / Fold Change, Protein tyrosine phosphatase, receptor-type, z polypeptide 1 (PTPRZ1) mRNA / Fold Change, Roundabout, axon guidance receptor, homolog 1 (ROBO1) mRNA / Fold Change, Sal-like 1 (SALL1) mRNA / Fold Change, Secreted phosphoprotein 1 (osteopontin) mRNA / Fold Change, Solute carrier family 6, member 8 (SLC6A8) mRNA / Fold Change, Telomerase reverse transcriptase (TERT) mRNA / Fold Change, Teratocarcinoma-derived growth factor 1 (CRIPTO) mRNA / Fold Change, Thy-1 co-transcribed mRNA / Fold Change, Zic family member 3 (ZIC3) mRNA / Fold Change, Zinc finger protein of cerebellum ZIC2 mRNA / Fold Change, Zinc finger protein, HSAL2 mRNA / Fold Change, Pr domain containing 14 (PRDM14) mRNA: hES cells cultured 1 week with 500 nM RA or 0.5% DMSO; for Fold Change, Pr domain containing 14 (PRDM14) mRNA: normalised to 18S rRNA, 2^-ddCT
Description: To verify the expression patterns of particular genes of interest at the mRNA level, extracts of undifferentiated hES cells and their differentiated progeny were assayed by real-time PCR. Cells were cultured for 1 week with 0.5% dimethyl sulfoxide (DMSO) or 500 nM retinoic acid (RA). The samples were amplified using sequence-specific primers, and the rate of amplification was correlated with the expression level of each gene in the cell population.
Taqman™ RT-PCR was performed under the following conditions: 1×RT Master Mix (ABI), 300 nM for each primer, and 80 nM of probe, and 10 pg to 100 ng of total RNA in nuclease-free water. The reaction was conducted under default RT-PCR conditions of 48° C. hold for 30 min, 95° C. hold for 10 min, and 40 cycles of 95° C. at 15 sec and 60° C. hold for 1 min. RNA was isolated by a guanidinium isothiocyanate method (RNAeasy™ kit, Qiagen) according to manufacturer's instructions, and subsequently DNAse treated (DNAfree™ kit, Ambion). Gene-specific primers and probes were designed by PrimerExpress™ software (Ver. 1.5, ABI). Probe oligonucleotides were synthesized with the fluorescent indicators 6-carboxyfluorescein (FAM) and 6-carboxy-tetramethylrhodamine (TAMRA) at the 5′ and 3′ ends, respectively. Relative quantitation of gene expression between multiple samples was achieved by normalization against endogenous 18S ribosomal RNA (primer and probe from ABI) using the ΔΔCT method of quantitation (ABI). Fold change in expression level was calculated as 2^−ΔΔCT.
Since the cells have been cultured in RA and DMSO for a short period, they are at the early stages of differentiation, and the difference in expression level is less dramatic than it would be after further differentiation. Of particular interest for following or modulating the differentiation process are markers that show modified expression within the first week of differentiation by more than 2-fold (*), 5-fold (**), 10-fold (***), or 100-fold (****).
KALL and EPHAL were not tested.

[1] = H9 hES cells after culturing for 7 days with RA or DM (FIG. 1)

| SMILES | Fold Change, 130 kDa leucine-rich protein (LRP 130) mRNA [fold] | Fold Change, Bone marrow stromal antigen 2 (BST-2) mRNA [fold] | Fold Change, Bone morphogenetic protein receptor, type Ia (BMPR1A) (ALK-3) mRNA [fold] | Fold Change, EST (GA_28053, T24677) | Fold Change, Early development regulator 1 (polyhomeotic 1 homolog) (EDR1) mRNA [fold] | Fold Change, Ephrin type-a receptor 1 (EPHA1) mRNA [fold] | Fold Change, FLJ31267 (acetylglucosaminyltransferase-like protein) mRNA [fold] | Fold Change, Fibroblast growth factor receptor 3 precursor (FGFR-3) mRNA [fold] | Fold Change, Forkhead box h1 (FOXH1) mRNA [fold] | Fold Change, Forkhead box o1a (foxo1a) mRNA [fold] | Fold Change, Gamma-aminobutyric acid (GABA) A receptor, beta 3 mRNA [fold] | Fold Change, Gastrin-releasing peptide receptor (GRP-R) mRNA [fold] | Fold Change, Glypican-2 (cerebroglycan) mRNA [fold] | Fold Change, Hypothetical protein BC018070 mRNA [fold] | Fold Change, Hypothetical protein FLJ14549 mRNA [fold] | Fold Change, Kallmann syndrome 1 sequence (KAL1) mRNA [fold] | Fold Change, Krab-zinc finger protein SZF1-1 mRNA [fold] | Fold Change, Left-right determination, factor b (LEFTB) mRNA [fold] | Fold Change, Nell2 (NEL-like protein 2) mRNA [fold] | Fold Change, Notch 1 (N1) mRNA [fold] | also measured |
| --- | --- | --- | --- | --- | --- | --- | --- | --- | --- | --- | --- | --- | --- | --- | --- | --- | --- | --- | --- | --- | --- |
| C[S+](C)[O-] [DMSO, dimethyl sulfoxide] | −1.9 | −1.9 | −2.4 | <−100* fold | −5.6 | −1.9 | −4.5 | 2.3 | −5.6 | −2.9 | −5.6 | −9.1 | −1.2 | −10.0 | −10.0 | −2.5 | −3.1 | −25.0 | −1.3 | 1.0 | Gene expression of ICAM in differentiated cells [1]: below the limit of detection; Gene expression of rhodopsin in differentiated cells [1]: below the limit of detection; Fold Change, Octamer-binding transcription factor 3a (OCT-3A) (OCT-4) mRNA: −7.7 fold; Fold Change, Podocalyxin-like (PODXL) mRNA: −4.3 fold; Fold Change, Potassium channel subfamily k member 5 (TASK-2) mRNA: 1.0 fold; Fold Change, Protein tyrosine phosphatase, receptor-type, z polypeptide 1 (PTPRZ1) mRNA: −3.3 fold; Fold Change, Roundabout, axon guidance receptor, homolog 1 (ROBO1) mRNA: 1.0 fold; Fold Change, Sal-like 1 (SALL1) mRNA: −1.3 fold; Fold Change, Secreted phosphoprotein 1 (osteopontin) mRNA: −10.0 fold; Fold Change, Solute carrier family 6, member 8 (SLC6A8) mRNA: −1.1 fold; Fold Change, Telomerase reverse transcriptase (TERT) mRNA: −2.3 fold; Fold Change, Teratocarcinoma-derived growth factor 1 (CRIPTO) mRNA: −12.5 fold; Fold Change, Thy-1 co-transcribed mRNA: −11.1 fold; Fold Change, Zic family member 3 (ZIC3) mRNA: −5.3 fold; Fold Change, Zinc finger protein of cerebellum ZIC2 mRNA: −2.9 fold; Fold Change, Zinc finger protein, HSAL2 mRNA: −2.8 fold; Fold Change, Pr domain containing 14 (PRDM14) mRNA: −8.3 fold |
| CC1=C(/C=C/C(C)=C/C=C/C(C)=C/C(=O)O)C(C)(C)CCC1 [RA, retinoic acid] | −1.9 | 1.1 | −2.4 | <−100* fold | −1.8 | −1.3 | −2.3 | 1.5 | −1.8 | −1.6 | −2.8 | −6.3 | −1.5 | −3.2 | −2.3 | −1.1 | −1.8 | −16.7 | −1.3 | 1.3 | Fold Change, Octamer-binding transcription factor 3a (OCT-3A) (OCT-4) mRNA: −3.7 fold; Fold Change, Podocalyxin-like (PODXL) mRNA: −2.6 fold; Fold Change, Potassium channel subfamily k member 5 (TASK-2) mRNA: −1.6 fold; Fold Change, Protein tyrosine phosphatase, receptor-type, z polypeptide 1 (PTPRZ1) mRNA: −1.7 fold; Fold Change, Roundabout, axon guidance receptor, homolog 1 (ROBO1) mRNA: 1.1 fold; Fold Change, Sal-like 1 (SALL1) mRNA: 1.4 fold; Fold Change, Secreted phosphoprotein 1 (osteopontin) mRNA: −3.8 fold; Fold Change, Solute carrier family 6, member 8 (SLC6A8) mRNA: −1.1 fold; Fold Change, Telomerase reverse transcriptase (TERT) mRNA: −2.1 fold; Fold Change, Teratocarcinoma-derived growth factor 1 (CRIPTO) mRNA: −4.0 fold; Fold Change, Thy-1 co-transcribed mRNA: −12.5 fold; Fold Change, Zic family member 3 (ZIC3) mRNA: −1.7 fold; Fold Change, Zinc finger protein of cerebellum ZIC2 mRNA: 1.0 fold; Fold Change, Zinc finger protein, HSAL2 mRNA: −1.4 fold; Fold Change, Pr domain containing 14 (PRDM14) mRNA: −1.9 fold |
